From ChEMBL document CHEMBL6120946, “From Hit to Lead: Discovery of First-In-Class Furanone Glycoside D228 Derived from Chimonanthus salicifolius for the Treatment of Inflammatory Bowel Disease” (J Med Chem, 2024)
The source made the active and inactive calls. The rule behind the calls is not given here.

Columns and labels:
Mus musculus [1] = assay: Antiinflammatory activity in DSS-induced male C57BL/6 mouse model assessed as inhibition of IL-6 level in colon at 50 to 100 microM/Kg; assay type: functional, organism-based; conditions: dose 50-100 µM/Kg
Mus musculus [2] = assay: Antiinflammatory activity in DSS-induced male C57BL/6 mouse model of inflammatory bowel disease assessed as amelioration of crypts disruption at 50 to 100 microM/Kg by H and E staining based analysis; assay type: functional, organism-based; conditions: dose 50-100 µM/Kg
B-cell line = assay: Immunosuppressive activity in mouse B-lymphocyte assessed as reduction in LPS-induced cell proliferation incubated for 48 hrs; assay type: functional, cell-based
[3] = Toxicity in female BALB/c mouse assessed as effect on CREA level at 0.5 g/Kg administered daily and measured after 5 weeks; conditions: in vivo, 500 mg/kg, 840 h
Mus musculus [4] = assay: Antiinflammatory activity in DSS-induced male C57BL/6 mouse model assessed as inhibition of IL-17A level in colon at 50 to 100 microM/Kg; assay type: functional, organism-based; conditions: dose 50-100 µM/Kg
Mus musculus [5] = assay: Antiinflammatory activity in DSS-induced male C57BL/6 mouse model of inflammatory bowel disease assessed as downregulation of MyD88 expression at 50 to 100 microM/Kg by Western blot analysis; assay type: functional, organism-based; conditions: dose 50-100 µM/Kg
Mus musculus [6] = assay: Antiinflammatory activity in DSS-induced male C57BL/6 mouse model of inflammatory bowel disease assessed as amelioration of structural loss of colon at 50 to 100 microM/Kg by H and E staining based analysis; assay type: functional, organism-based; conditions: dose 50-100 µM/Kg
Mus musculus [7] = assay: Antiinflammatory activity in DSS-induced male C57BL/6 mouse model of inflammatory bowel disease assessed as amelioration of infiltration of inflammatory cells at 50 to 100 microM/Kg by H and E staining based analysis; assay type: functional, organism-based; conditions: dose 50-100 µM/Kg
[8] = Cytotoxicity against mouse Splenocyte by MTT assay; assay type: toxicity, cell-based; conditions: splenocytes
[9] = Toxicity in male C57BL/6 mouse assessed as effect on Na inorganic salt index at 0.5 g/Kg administered daily and measured after 5 weeks; conditions: in vivo, 500 mg/kg, 840 h
Mus musculus [10] = assay: Antiinflammatory activity in DSS-induced male C57BL/6 mouse model assessed as effect on JNK phosphorylation level at 50 to 100 microM/Kg by Western blot analysis; assay type: functional, organism-based; conditions: dose 50-100 µM/Kg
[11] = Toxicity in female BALB/c mouse assessed as effect on GLU level at 0.5 g/Kg administered daily and measured after 5 weeks; conditions: in vivo, 500 mg/kg, 840 h
Mus musculus [12] = assay: Antiinflammatory activity in DSS-induced male C57BL/6 mouse model assessed as inhibition of TNF-alpha level in colon at 50 to 100 microM/Kg; assay type: functional, organism-based; conditions: dose 50-100 µM/Kg
Mus musculus [13] = assay: Antiinflammatory activity in DSS-induced male C57BL/6 mouse model assessed as inhibition of IL-22 level in colon at 50 to 100 microM/Kg; assay type: functional, organism-based; conditions: dose 50-100 µM/Kg
Mus musculus [14] = assay: Antiinflammatory activity in DSS-induced male C57BL/6 mouse model of inflammatory bowel disease assessed as downregulation of TRAF6 expression at 50 to 100 microM/Kg by Western blot analysis; assay type: functional, organism-based; conditions: dose 50-100 µM/Kg
[15] = Toxicity in male C57BL/6 mouse assessed as effect on ALP level at 0.5 g/Kg administered daily and measured after 5 weeks; conditions: in vivo, 500 mg/kg, 840 h
[16] = Toxicity in male C57BL/6 mouse assessed as effect on CREA level at 0.5 g/Kg administered daily and measured after 5 weeks; conditions: in vivo, 500 mg/kg, 840 h
Mus musculus [17] = assay: Antiinflammatory activity in DSS-induced male C57BL/6 mouse model assessed as increase in IL-10 level in colon at 50 to 100 microM/Kg; assay type: functional, organism-based; conditions: dose 50-100 µM/Kg
[18] = Selectivity ratio of CC50 for cytotoxicity against mouse Splenocyte to IC50 for immunosuppressive activity in mouse B-lymphocyte; assay type: toxicity; conditions: splenocytes (CC50) and B-lymphocytes (IC50)
[19] = Toxicity in male C57BL/6 mouse assessed as effect on Cl inorganic salt index at 0.5 g/Kg administered daily and measured after 5 weeks; conditions: in vivo, 500 mg/kg, 840 h
[20] = Selectivity ratio of CC50 for cytotoxicity against mouse Splenocyte to IC50 for immunosuppressive activity in mouse T-lymphocyte; assay type: toxicity; conditions: splenocytes (CC50) and T-lymphocytes (IC50)
Mus musculus [21] = assay: Antiinflammatory activity in DSS-induced male C57BL/6 mouse model of inflammatory bowel disease assessed as upregulation of ZO-1 expression in colon at 50 to 100 microM/Kg by immunohistochemical analysis; assay type: functional, organism-based; conditions: dose 50-100 µM/Kg
Mus musculus [22] = assay: Antiinflammatory activity in DSS-induced male C57BL/6 mouse model of inflammatory bowel disease assessed as decrease in p38 phosphorylation level at 50 to 100 microM/Kg by Western blot analysis; assay type: functional, organism-based; conditions: dose 50-100 µM/Kg
[23] = Toxicity in female BALB/c mouse assessed as effect on Cl inorganic salt index at 0.5 g/Kg administered daily and measured after 5 weeks; conditions: in vivo, 500 mg/kg, 840 h
[24] = Toxicity in male C57BL/6 mouse assessed as effect on CK level at 0.5 g/Kg administered daily and measured after 5 weeks; conditions: in vivo, 500 mg/kg, 840 h
Mus musculus [25] = assay: Antiinflammatory activity in DSS-induced male C57BL/6 mouse model of inflammatory bowel disease assessed as inhibition of MPO expression at 50 to 100 microM/Kg, po by immunohistochemical analysis; assay type: functional, organism-based; conditions: dose 50-100 µM/Kg
[26] = Immunosuppressive activity in mouse T-lymphocyte assessed as reduction in concanavalin A-induced cell proliferation incubated for 48 hrs; assay type: functional, cell-based
[27] = Toxicity in female BALB/c mouse assessed as effect on Na inorganic salt index at 0.5 g/Kg administered daily and measured after 5 weeks; conditions: in vivo, 500 mg/kg, 840 h
[28] = Toxicity in female BALB/c mouse assessed as effect on ALP level at 0.5 g/Kg administered daily and measured after 5 weeks; conditions: in vivo, 500 mg/kg, 840 h
[29] = Toxicity in female BALB/c mouse assessed as effect on CK level at 0.5 g/Kg administered daily and measured after 5 weeks; conditions: in vivo, 500 mg/kg, 840 h
[30] = Toxicity in male C57BL/6 mouse assessed as effect on GLU level at 0.5 g/Kg administered daily and measured after 5 weeks; conditions: in vivo, 500 mg/kg, 840 h

In the case of CC(C)=C1OC(C)=C(O)C1=O, the Activity (Mus musculus [1]) is reported as “Active”, the Activity (Mus musculus [2]) is reported as “Active” and the IC50 (B-cell line) is reported as 23.1 µM. The Activity [3] was “Non-toxic”, the Activity (Mus musculus [4]) was “Active” and the Activity (Mus musculus [5]) was “Active”. For the same compound, the Activity (Mus musculus [6]) was “Active”, the Activity (Mus musculus [7]) was “Active” and the CC50 [8] was 110 µM. For the same compound, the Activity [9] was “Non-toxic”, the Activity (Mus musculus [10]) was “inactive” and the Activity [11] was “Non-toxic”. For the same compound, the Activity (Mus musculus [12]) was “Active”, the Activity (Mus musculus [13]) was “Active” and the Activity (Mus musculus [14]) was “Active”. For the same compound, the Activity [15] was “Non-toxic”, the Activity [16] was “Non-toxic” and the Activity (Mus musculus [17]) was “Active”. For the same compound, the selectivity ratio [18] was 4.77, the Activity [19] was “Non-toxic” and the selectivity ratio [20] was 1.82. For the same compound, the Activity (Mus musculus [21]) was “Active”, the Activity (Mus musculus [22]) was “Active” and the Activity [23] was “Non-toxic”. The Activity [24] was “Non-toxic”, the Activity (Mus musculus [25]) was “Active” and the IC50 [26] was 62.1 µM. The Activity [27] was “Non-toxic”, the Activity [28] was “Non-toxic” and the Activity [29] was “Non-toxic”. For the same compound, the Activity [30] was “Non-toxic”.
